From patent publication US20210255193A1, “LYSINE REACTIVE PROBES AND USES THEREOF” (The Scripps Research Institute, priority 2017, published 2021) come the findings set out here.

Structures are written as SMILES.

Holding throughout (assay): competitive isoTOP-ABPP
Type in all cases: binding

For test [1], the target named is T1, TRAP1 Heat shock protein 75 kDa, mitochondrial (Homo sapiens, UniProt Q12931).
T1 construct: isoTOP-ABPP experiments performed in cell lysates (in vitro); endogenous in cells; host or cells: soluble proteome of human cancer cell lines (MDA-MB-231, Ramos, Jurkat)
T1 sequence (Q12931 60-704): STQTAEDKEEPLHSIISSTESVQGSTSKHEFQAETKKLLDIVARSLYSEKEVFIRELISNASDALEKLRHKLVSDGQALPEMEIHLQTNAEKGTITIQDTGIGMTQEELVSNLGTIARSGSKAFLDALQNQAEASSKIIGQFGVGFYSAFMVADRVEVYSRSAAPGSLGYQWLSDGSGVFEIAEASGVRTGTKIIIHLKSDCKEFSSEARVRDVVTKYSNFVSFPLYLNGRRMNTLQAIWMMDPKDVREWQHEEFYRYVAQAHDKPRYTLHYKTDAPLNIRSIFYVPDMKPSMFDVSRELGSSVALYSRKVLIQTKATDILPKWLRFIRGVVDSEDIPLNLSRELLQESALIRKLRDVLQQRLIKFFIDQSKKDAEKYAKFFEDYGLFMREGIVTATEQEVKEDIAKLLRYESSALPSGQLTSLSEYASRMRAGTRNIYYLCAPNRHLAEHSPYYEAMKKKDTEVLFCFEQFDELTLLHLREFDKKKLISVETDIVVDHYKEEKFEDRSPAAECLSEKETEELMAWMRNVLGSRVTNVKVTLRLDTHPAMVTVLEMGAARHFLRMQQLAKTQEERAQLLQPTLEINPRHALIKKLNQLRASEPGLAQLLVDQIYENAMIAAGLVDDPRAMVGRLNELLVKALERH
The conditions noted are these: for isoTOP-ABPP ratio (R) at liganded lysine Q12931_K699: 50 uM, in vitro, sol, 231. The method, boiled down:
(§1)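 Lysate + fragment (50 μM activated ester / 100 μM guanidinylating agent) or DMSO → 0.1 mM STP-alkyne, 1 h, RT → CuAAC to TEV tags (compound light, DMSO heavy) → LC-MS. R = heavy/light MS1 area; liganded lysine if R≥4.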

For test [2], the target named is T2, RQCD1 Cell differentiation protein RCD1 homolog (Homo sapiens, UniProt Q92600).
T2 construct: isoTOP-ABPP experiments performed in cell lysates (in vitro); endogenous in cells; host or cells: soluble proteome of human cancer cell lines (MDA-MB-231; Ramos and Jurkat also prepared)
T2 sequence (Q92600 whole entry): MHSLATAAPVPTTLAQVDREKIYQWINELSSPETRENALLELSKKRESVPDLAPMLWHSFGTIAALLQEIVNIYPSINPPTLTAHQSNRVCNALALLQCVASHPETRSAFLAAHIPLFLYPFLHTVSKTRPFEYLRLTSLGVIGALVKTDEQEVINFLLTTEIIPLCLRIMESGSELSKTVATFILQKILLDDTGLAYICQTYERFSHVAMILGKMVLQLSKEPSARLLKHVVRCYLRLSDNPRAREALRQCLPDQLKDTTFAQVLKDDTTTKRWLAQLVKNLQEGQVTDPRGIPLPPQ
The conditions noted are these: for isoTOP-ABPP ratio (R) at liganded lysine Q92600_K230: 50 uM, in vitro, sol, 231. An outline of the steps:
as §1

The next test addresses T3, FAH Fumarylacetoacetase (Homo sapiens, UniProt P16930).
T3 construct: isoTOP-ABPP experiments performed in cell lysates (in vitro); endogenous in cells; host or cells: soluble proteome of human cancer cell lines (MDA-MB-231; Ramos and Jurkat also prepared)
T3 sequence (P16930 1-419): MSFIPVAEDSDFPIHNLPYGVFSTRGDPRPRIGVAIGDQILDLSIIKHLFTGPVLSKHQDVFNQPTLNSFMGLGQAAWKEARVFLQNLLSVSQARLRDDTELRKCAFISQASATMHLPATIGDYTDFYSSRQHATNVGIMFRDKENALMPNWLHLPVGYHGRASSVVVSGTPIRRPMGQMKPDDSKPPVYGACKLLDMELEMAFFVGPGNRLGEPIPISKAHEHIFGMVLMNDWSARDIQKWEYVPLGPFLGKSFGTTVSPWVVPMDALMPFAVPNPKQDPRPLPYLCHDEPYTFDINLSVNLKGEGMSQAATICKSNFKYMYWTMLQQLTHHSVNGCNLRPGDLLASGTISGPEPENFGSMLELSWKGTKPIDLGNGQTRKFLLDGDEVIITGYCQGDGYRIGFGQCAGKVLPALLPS
The conditions noted are these: for isoTOP-ABPP ratio (R) at liganded lysine P16930_K241: 50 uM, in vitro, sol, 231. The method, boiled down: as §1

Consider `O=C(Oc1ccc([N+](=O)[O-])cc1[N+](=O)[O-])c1ccccc1Nc1cccc(C(F)(F)F)c1` [fragment 40, 2,4-Dinitrophenyl 2-((3-(trifluoromethyl)phenyl)amino)benzoate], for which, in test [1], the “isoTOP-ABPP ratio (R) at liganded lysine Q12931_K699” value worked out at 0.9. Further, the “isoTOP-ABPP ratio (R) at liganded lysine Q92600_K230” value in test [2] came out at 0.9. The “isoTOP-ABPP ratio (R) at liganded lysine P16930_K241” value at FAH Fumarylacetoacetase came to 1.4.
On to `CC(C)(C)OC(=O)NCCCC(=O)Oc1ccc([N+](=O)[O-])cc1[N+](=O)[O-]` [fragment 41, 2,4-Dinitrophenyl 4-((tert-butoxycarbonyl)amino)butanoate], for which the “isoTOP-ABPP ratio (R) at liganded lysine Q12931_K699” value in test [1] is 1.3. Further, the “isoTOP-ABPP ratio (R) at liganded lysine Q92600_K230” value in test [2] amounted to 2.6. Further, at FAH Fumarylacetoacetase, the “isoTOP-ABPP ratio (R) at liganded lysine P16930_K241” value was 1.4.
The corresponding values for `O=C(Oc1ccc([N+](=O)[O-])cc1[N+](=O)[O-])C(c1ccccc1)(c1ccccc1)c1ccccc1` [fragment 42, 2,4-Dinitrophenyl 2,2,2-triphenylacetate] are 1.0, 0.8 and 0.9.
In the case of `CC(=O)Oc1ccc([N+](=O)[O-])cc1[N+](=O)[O-]` [fragment 43, 2,4-Dinitrophenyl acetate], in test [1], the “isoTOP-ABPP ratio (R) at liganded lysine Q12931_K699” value is on record as 1.0. Moreover, the “isoTOP-ABPP ratio (R) at liganded lysine Q92600_K230” value in test [2] came to 6.8. Besides, on FAH Fumarylacetoacetase, the “isoTOP-ABPP ratio (R) at liganded lysine P16930_K241” value came to 1.4.
On to `N#Cc1ccc(C(=O)Oc2ccc([N+](=O)[O-])cc2[N+](=O)[O-])cc1` [fragment 44, 2,4-Dinitrophenyl 4-cyanobenzoate], for which, in test [1] (50 uM_231_sol_in vitro), the “isoTOP-ABPP ratio, lysine Q12931_K699” value came to 0.9. Further, in test [2] (50 uM_231_sol_in vitro), the “isoTOP-ABPP ratio, lysine Q92600_K230” value turned out to be 1.0. Moreover, on FAH Fumarylacetoacetase (50 uM_231_sol_in vitro), the “isoTOP-ABPP ratio, lysine P16930_K241” value is reported as 2.5.
`O=C(CCc1ccc2c(c1)OCO2)Oc1ccc([N+](=O)[O-])cc1[N+](=O)[O-]` [fragment 45, 2,4-Dinitrophenyl 3-(benzo[d][1,3]dioxol-5-yl)propanoate]: the “isoTOP-ABPP ratio, lysine Q12931_K699” value in test [1] (50 uM_231_sol_in vitro) turned out to be 1.4. Further, the “isoTOP-ABPP ratio, lysine Q92600_K230” value in test [2] (50 uM_231_sol_in vitro) stood at 1.7. Besides, the “isoTOP-ABPP ratio, lysine P16930_K241” value at FAH Fumarylacetoacetase (50 uM_231_sol_in vitro) amounted to 1.3.
On the same counts, the results for `O=C(ON1C(=O)CCC1=O)c1cc(C(F)(F)F)cc(C(F)(F)F)c1` [fragment 46, 3,5-Bis(trifluoromethyl)benzoic acid NHS ester] are 0.9, 1.1 and 8.1.
In the case of `O=C(Oc1c(F)c(F)c(C(F)(F)F)c(F)c1F)c1cc(C(F)(F)F)cc(C(F)(F)F)c1` [fragment 47, 2,3,5,6-Tetrafluoro-4-(trifluoromethyl)phenyl 3,5-bis(trifluoromethyl)benzoate], the “isoTOP-ABPP ratio, lysine Q12931_K699” value in test [1] (50 uM_231_sol_in vitro) was determined as 1.1. For the same compound, in test [2] (50 uM_231_sol_in vitro), the “isoTOP-ABPP ratio, lysine Q92600_K230” value is reported as 0.8. The “isoTOP-ABPP ratio, lysine P16930_K241” value on FAH Fumarylacetoacetase (50 uM_231_sol_in vitro) is recorded as 1.2.
Regarding `COC(=O)NC(=NC(=O)OCC1c2ccccc2-c2ccccc21)n1cccn1` [fragment 49, N-Methoxycarbonyl-N′-9-fluorenylmethoxycarbonyl-pyrazole-1-carboxamidine], the “isoTOP-ABPP ratio, lysine Q12931_K699” value in test [1] (100 uM_231_sol_in vitro) worked out at 1.2. Also, the “isoTOP-ABPP ratio, lysine Q92600_K230” value in test [2] (100 uM_231_sol_in vitro) is listed as 1.1. Further, the “isoTOP-ABPP ratio, lysine P16930_K241” value at FAH Fumarylacetoacetase (100 uM_231_sol_in vitro) stood at 1.3.
On the same counts, the results for `CC(C)(C)OC(=O)N=C(NC(=O)OC(C)(C)C)n1cccn1` [fragment 50, reference compound] are 1.1, 1.0 and 1.5.
As for `NC(=O)c1cc(C(F)(F)F)cc(C(F)(F)F)c1` [fragment 51, reference compound], the “isoTOP-ABPP ratio, lysine Q12931_K699” value in test [1] (50 uM_231_sol_in vitro) amounted to 1.2. Besides, the “isoTOP-ABPP ratio, lysine Q92600_K230” value in test [2] (50 uM_231_sol_in vitro) was 0.9. Moreover, the “isoTOP-ABPP ratio, lysine P16930_K241” value at FAH Fumarylacetoacetase (50 uM_231_sol_in vitro) was 0.9.
